Laboratory results reported in ChEMBL document CHEMBL5634101, “Discovery of NLRP3 inhibitors using machine learning: Identification of a hit compound to treat NLRP3 activation-driven diseases” (Eur J Med Chem, 2023).
Activity calls are given as the source filed them. The calls are words filed in the database; no cut-off is given here.

Experiments:
[1] = Stability in human liver microsomes assessed as half-life at 1.5 uM measured upto 45 mins in presence of NADPH by LC-MS/MS analysis; type: ADME, Microsome
[2] = target: NACHT, LRR and PYD domains-containing protein 3 (Mus musculus) (UniProt Q8R4B8); experiment: (§1) Inhibition of NLRP3 inflammasome activation in LPS/Nigericin induced C57 mouse BMDM cells assessed as reduction in intracellular NLRP3 expression in cell supernatant at 2.5 to 10 uM preincubated with LPS for 3 hrs followed by compound addition for 30 mins prior to nigericin addition and measured after 30 mins by Western blot analysis; type: cell-based; conditions: dose 2.5-10 µM, time 1.0 hrs
Chain of NACHT, LRR and PYD domains-containing protein 3 (Mus musculus) (Q8R4B8 whole entry, the tested form may be a part): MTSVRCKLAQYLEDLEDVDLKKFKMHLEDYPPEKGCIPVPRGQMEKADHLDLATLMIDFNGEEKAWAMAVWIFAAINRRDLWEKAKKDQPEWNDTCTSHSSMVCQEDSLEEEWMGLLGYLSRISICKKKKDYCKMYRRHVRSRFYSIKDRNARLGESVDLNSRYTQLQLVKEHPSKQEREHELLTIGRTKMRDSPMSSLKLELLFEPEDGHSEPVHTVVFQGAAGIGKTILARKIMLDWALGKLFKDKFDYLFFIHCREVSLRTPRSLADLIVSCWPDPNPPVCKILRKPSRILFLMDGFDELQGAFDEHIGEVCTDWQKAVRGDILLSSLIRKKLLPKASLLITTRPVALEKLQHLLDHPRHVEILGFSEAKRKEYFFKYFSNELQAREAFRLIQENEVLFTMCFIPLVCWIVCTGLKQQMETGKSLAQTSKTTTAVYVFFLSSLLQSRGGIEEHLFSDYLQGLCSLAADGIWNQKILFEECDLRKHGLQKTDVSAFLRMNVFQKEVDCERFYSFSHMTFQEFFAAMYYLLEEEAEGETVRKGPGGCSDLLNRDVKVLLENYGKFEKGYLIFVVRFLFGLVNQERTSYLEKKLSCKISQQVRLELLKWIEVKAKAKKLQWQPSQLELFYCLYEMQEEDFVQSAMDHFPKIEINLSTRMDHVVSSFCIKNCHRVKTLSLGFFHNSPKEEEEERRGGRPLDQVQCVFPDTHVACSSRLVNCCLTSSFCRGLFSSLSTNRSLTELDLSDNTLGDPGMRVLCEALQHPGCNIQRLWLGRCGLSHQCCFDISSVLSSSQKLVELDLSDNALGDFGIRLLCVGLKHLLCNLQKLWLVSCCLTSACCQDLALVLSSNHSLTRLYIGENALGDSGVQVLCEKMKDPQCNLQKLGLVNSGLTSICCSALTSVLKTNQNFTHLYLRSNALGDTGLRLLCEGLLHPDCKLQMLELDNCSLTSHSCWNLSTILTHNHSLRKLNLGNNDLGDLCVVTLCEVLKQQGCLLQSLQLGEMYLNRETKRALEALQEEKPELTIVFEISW

[3] = target: T1, Interferon-inducible protein AIM2 (Mus musculus) (UniProt Q91VJ1); experiment: Inhibition of AIM2 inflammasome activation in C57 mouse BMDM cells assessed as reduction in IL-1beta secretion at 5 uM preincubated with LPS for 3 hrs followed by poly(dA:dT) stimulation for 4 hrs by Western blot analysis; type: cell-based
T1 sequence (whole entry): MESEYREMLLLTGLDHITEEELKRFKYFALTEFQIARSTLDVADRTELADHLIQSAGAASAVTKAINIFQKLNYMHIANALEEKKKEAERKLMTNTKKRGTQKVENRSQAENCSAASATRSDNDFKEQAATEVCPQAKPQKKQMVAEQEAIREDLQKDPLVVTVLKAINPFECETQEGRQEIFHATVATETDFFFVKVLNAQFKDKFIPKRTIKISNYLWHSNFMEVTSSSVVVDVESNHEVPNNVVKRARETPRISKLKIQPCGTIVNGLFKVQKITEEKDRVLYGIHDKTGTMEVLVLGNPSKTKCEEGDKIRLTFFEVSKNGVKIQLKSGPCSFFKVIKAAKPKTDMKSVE

[4] = target: NACHT, LRR and PYD domains-containing protein 3 (Mus musculus) (UniProt Q8R4B8); experiment: Inhibition of NLRP3 inflammasome activation in C57 mouse BMDM cells assessed as reduction in caspase-1 maturation at 5 uM preincubated with LPS for 3 hrs followed by compound addition for 30 mins prior to ATP addition and measured after 30 mins by Western blot analysis; type: cell-based; conditions: time 1.0 hrs
[5] = target: NACHT, LRR and PYD domains-containing protein 3 (Mus musculus) (UniProt Q8R4B8); experiment: as §1, with “ASC” for “intracellular NLRP3”; type: cell-based; conditions: dose 2.5-10 µM, time 1.0 hrs
[6] = target: NACHT, LRR and PYD domains-containing protein 3 (Mus musculus) (UniProt Q8R4B8); experiment: as §1, with “pro-caspase-1(p45)” for “intracellular NLRP3”; type: cell-based; conditions: dose 2.5-10 µM, time 1.0 hrs
Mus musculus [7] = experiment: Anti-inflammatory activity in MSU-induced C57 mouse model of gouty arthritis assessed as reduction in foot swelling at 10 to 30 mg/kg, ip preadministered with compound for 3 days followed by MSU injection and measured after 24 hrs; type: functional, organism-based; conditions: dose 10-30 mg/kg, time 4.0 day
[8] = target: NACHT, LRR and PYD domains-containing protein 3 (Mus musculus) (UniProt Q8R4B8); experiment: Inhibition of NLRP3 inflammasome assembly in C57 mouse BMDM cells assessed as reduction in higher order complex cross-linking at 2.5 to 10 uM preincubated with LPS for 3 hrs followed by compound addition for 30 mins prior to nigericin addition and measured after 30 mins by ASC oligomerization based blotting analysis; type: cell-based; conditions: dose 2.5-10 µM, time 1.0 hrs
[9] = target: NACHT, LRR and PYD domains-containing protein 3 (Mus musculus) (UniProt Q8R4B8); experiment: Binding affinity to NLRP3 in mouse J774.A1 cells assessed as reduction in NLRP3 degradation incubated for 1 hrs at 48 to 81 degreeC by CETSA based Western blot analysis; type: cell-based
[10] = target: NACHT, LRR and PYD domains-containing protein 3 (Mus musculus) (UniProt Q8R4B8); experiment: Inhibition of NLRP3 inflammasome activation in C57 mouse BMDM cells assessed as reduction in caspase-1 maturation at 5 uM preincubated with LPS for 3 hrs followed by compound addition for 30 mins prior to MSU addition and measured after 4 hrs by Western blot analysis; type: cell-based; conditions: time 4.5 hrs
[11] = target: NACHT, LRR and PYD domains-containing protein 3 (Mus musculus) (UniProt Q8R4B8); experiment: Inhibition of NLRP3 inflammasome assembly in C57 mouse BMDM cells assessed as reduction in ASC monomer at 2.5 to 10 uM preincubated with LPS for 3 hrs followed by compound addition for 30 mins prior to nigericin addition and measured after 30 mins by blotting analysis; type: cell-based; conditions: dose 2.5-10 µM, time 1.0 hrs
[12] = target: NACHT, LRR and PYD domains-containing protein 3 (Mus musculus) (UniProt Q8R4B8); experiment: Inhibition of NLRP3 inflammasome assembly in C57 mouse BMDM cells assessed as effect on NEK7 binding at 2.5 to 10 uM preincubated with LPS for 3 hrs followed by compound addition for 30 mins prior to nigericin addition and measured after 30 mins by immunoprecipitation; type: cell-based; conditions: dose 2.5-10 µM, time 1.0 hrs
[13] = target: T2, NACHT, LRR and PYD domains-containing protein 3 (Homo sapiens, UniProt Q96P20); experiment: Binding affinity to CM5 chip immobilized NLRP3 (unknown origin) assessed as dissociation constant by SPR analysis
T2 sequence (Q96P20 whole entry, the tested form may be a part): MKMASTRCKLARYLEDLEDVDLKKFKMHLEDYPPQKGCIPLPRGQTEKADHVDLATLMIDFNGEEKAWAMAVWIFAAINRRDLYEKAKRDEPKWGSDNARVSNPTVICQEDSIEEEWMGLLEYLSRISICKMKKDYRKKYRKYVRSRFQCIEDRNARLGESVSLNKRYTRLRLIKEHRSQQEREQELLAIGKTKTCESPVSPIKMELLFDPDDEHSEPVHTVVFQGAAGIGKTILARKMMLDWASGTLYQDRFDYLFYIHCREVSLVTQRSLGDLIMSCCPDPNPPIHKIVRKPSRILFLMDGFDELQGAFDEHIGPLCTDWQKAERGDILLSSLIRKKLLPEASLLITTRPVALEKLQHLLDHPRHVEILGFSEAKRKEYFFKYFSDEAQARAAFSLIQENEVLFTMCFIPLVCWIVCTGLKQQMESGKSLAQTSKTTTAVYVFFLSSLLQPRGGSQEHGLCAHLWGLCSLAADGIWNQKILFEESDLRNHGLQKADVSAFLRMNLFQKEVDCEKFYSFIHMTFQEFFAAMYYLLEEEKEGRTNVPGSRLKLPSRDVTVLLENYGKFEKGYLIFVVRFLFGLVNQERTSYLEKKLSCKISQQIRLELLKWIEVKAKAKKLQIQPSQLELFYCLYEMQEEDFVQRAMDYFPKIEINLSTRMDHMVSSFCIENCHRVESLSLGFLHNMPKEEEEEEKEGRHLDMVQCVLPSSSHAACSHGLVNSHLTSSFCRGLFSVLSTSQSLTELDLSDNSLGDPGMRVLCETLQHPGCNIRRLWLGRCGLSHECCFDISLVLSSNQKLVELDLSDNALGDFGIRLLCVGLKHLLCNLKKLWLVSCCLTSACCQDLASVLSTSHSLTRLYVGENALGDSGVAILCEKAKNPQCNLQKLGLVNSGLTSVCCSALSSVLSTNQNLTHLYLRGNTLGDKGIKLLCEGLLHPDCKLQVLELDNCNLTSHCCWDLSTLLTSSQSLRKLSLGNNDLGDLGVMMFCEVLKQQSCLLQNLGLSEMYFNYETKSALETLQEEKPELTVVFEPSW

[14] = target: NACHT, LRR and PYD domains-containing protein 3 (Mus musculus) (UniProt Q8R4B8); experiment: Inhibition of NLRP3 inflammasome assembly in C57 mouse BMDM cells assessed as effect on ASC binding at 2.5 to 10 uM preincubated with LPS for 3 hrs followed by compound addition for 30 mins prior to nigericin addition and measured after 30 mins by immunoprecipitation; type: cell-based; conditions: dose 2.5-10 µM, time 1.0 hrs
[15] = target: NACHT, LRR and PYD domains-containing protein 3 (Mus musculus) (UniProt Q8R4B8); experiment: as §1, with “NEK7” for “intracellular NLRP3”; type: cell-based; conditions: dose 2.5-10 µM, time 1.0 hrs
BMDM = experiment: Effect on TNF-alpha secretion in LPS/Nigericin induced C57 mouse BMDM cells at 1.25 to 10 uM preincubated with LPS for 3 hrs followed by compound addition for 30 mins prior to nigericin addition and measured after 30 mins by ELISA; type: functional, cell-based; conditions: dose 1.25-10 µM, time 1.0 hrs
[16] = target: T2, NACHT, LRR and PYD domains-containing protein 3; experiment: (§2) Inhibition of NLRP3 inflammasome activation in […]-differentiated human THP-1 cells assessed as effect on potassium efflux at 2.5 to 10 uM preincubated with LPS for 3 hrs followed by compound addition for 30 mins prior to nigericin addition and measured after 30 mins by fluorescence based analysis; type: cell-based; conditions: dose 2.5-10 µM, time 1.0 hrs
Mus musculus [17] = experiment: Anti-inflammatory activity in LPS-induced C57 sepsis mouse model assessed as reduction in inflammatory infiltration in liver at 10 to 30 mg/kg, ip preadministered with compound for 30 mins followed by LPS stimulation and measured after 6 hrs by H&E staining based analysis; type: functional, organism-based; conditions: dose 10-30 mg/kg, time 6.5 hrs
[18] = target: NLR family CARD domain-containing protein 4 (Mus musculus) (UniProt Q3UP24); experiment: Inhibition of NLRC4 inflammasome activation in C57 mouse BMDM cells assessed as reduction in caspase-1 maturation at 5 uM preincubated with LPS for 3 hrs followed by Salmonella typhimurium stimulation for 2 hrs by Western blot analysis; type: cell-based
Chain of NLR family CARD domain-containing protein 4 (Mus musculus) (Q3UP24 whole entry, the tested form may be a part): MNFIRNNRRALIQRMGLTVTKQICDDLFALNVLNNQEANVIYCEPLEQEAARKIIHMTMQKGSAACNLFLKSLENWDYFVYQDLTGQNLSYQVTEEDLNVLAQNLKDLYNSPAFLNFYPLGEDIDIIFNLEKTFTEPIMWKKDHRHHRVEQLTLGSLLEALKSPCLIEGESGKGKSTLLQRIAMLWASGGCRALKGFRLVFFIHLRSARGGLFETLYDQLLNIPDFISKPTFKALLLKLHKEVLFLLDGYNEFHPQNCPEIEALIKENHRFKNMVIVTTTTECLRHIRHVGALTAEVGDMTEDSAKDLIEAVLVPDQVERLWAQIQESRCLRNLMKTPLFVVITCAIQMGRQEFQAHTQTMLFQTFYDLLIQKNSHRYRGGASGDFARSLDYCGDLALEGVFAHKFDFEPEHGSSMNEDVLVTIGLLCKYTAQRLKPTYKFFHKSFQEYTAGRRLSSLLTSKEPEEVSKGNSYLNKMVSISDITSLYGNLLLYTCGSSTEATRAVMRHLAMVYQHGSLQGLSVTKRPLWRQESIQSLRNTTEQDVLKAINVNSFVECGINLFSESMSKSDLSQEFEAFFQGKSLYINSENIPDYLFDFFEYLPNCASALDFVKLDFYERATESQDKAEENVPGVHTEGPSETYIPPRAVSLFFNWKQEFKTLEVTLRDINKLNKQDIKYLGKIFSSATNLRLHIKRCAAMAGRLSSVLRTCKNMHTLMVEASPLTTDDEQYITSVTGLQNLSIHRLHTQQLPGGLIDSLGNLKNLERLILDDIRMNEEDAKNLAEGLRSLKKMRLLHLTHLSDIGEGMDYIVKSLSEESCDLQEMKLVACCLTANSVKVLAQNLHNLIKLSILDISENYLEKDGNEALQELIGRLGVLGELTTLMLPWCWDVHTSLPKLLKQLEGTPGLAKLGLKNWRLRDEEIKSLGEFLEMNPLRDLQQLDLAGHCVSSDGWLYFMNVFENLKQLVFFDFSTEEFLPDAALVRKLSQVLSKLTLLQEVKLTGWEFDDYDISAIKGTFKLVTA

[19] = target: NACHT, LRR and PYD domains-containing protein 3 (Mus musculus) (UniProt Q8R4B8); experiment: as §1, with “pro-IL-1beta” for “intracellular NLRP3”; type: cell-based; conditions: dose 2.5-10 µM, time 1.0 hrs
[20] = target: T2, NACHT, LRR and PYD domains-containing protein 3; experiment: as §2, with “ROS production” for “potassium efflux”, “at” for “at 2.5 to”, “MitoSOX dye/Hoechst 33342 staining” for “fluorescence”, “based confocal microscopic” for “based”; type: cell-based; conditions: time 1.0 hrs

- half-life at 1.5 µM [1]: 2.07 h
- inhibition [2]: inactive
- inhibition [3]: inactive
- inhibition [4]: Active
- inhibition [5]: inactive
- inhibition [6]: inactive
- inhibition [8]: Active
- Activity [9]: Active
- inhibition [10]: Active
- inhibition [11]: Active
- inhibition [12]: Active
- Kd [13]: 7.2 µM
- inhibition [14]: Active
- inhibition [15]: inactive
- inhibition [16]: inactive
- inhibition [18]: inactive
- inhibition [19]: inactive
- inhibition [20]: inactive
Structure (SMILES): COc1ccc(N2C(=O)/C(=C\c3ccccc3C(F)(F)F)SC2=S)cc1
- Activity (Mus musculus [7]): Active
- Activity (BMDM): inactive
- Activity (Mus musculus [17]): Active
